Data: US20080241904A1, “PROCESS FOR PRODUCING ISOMALTOSE AND USES THEREOF” (KABUSHIKI KAISHA HAYASHIBARA SEIBUTSU KAGAKU KENKYUJO, priority 2001, published 2008)

Assays:
[1] = tested on: α-isomaltosylglucosaccharide-forming enzyme from Bacillus globisporus C11 strain; assay: Specificity of saccharide transferring reaction acceptor, enzyme of Strain C11; format: biochemical; design: key: −: no saccharide-transferred product was detected through transferring reaction to acceptor; ±: a saccharide-transferred product was detected in an amount of less than one percent through transfer reaction to acceptor; +: a saccharide-transferred product was detected in an amount of at least one percent but less than ten percent through transferring reaction to acceptor; ++: a saccharide-transferred product was detected in an amount of at least ten percent through transferring reaction to acceptor; conditions: 1.6% acceptor, 4% PINE-DEX #100 as donor, one unit/g donor, 30° C., pH 6.0, 24 hours; GLC or HPLC
Description: (§1) Using different saccharides, it was tested whether the saccharides were used as saccharide transferring reaction acceptors for the α-isomaltosylglucosaccharide-forming enzyme. A 1.6% solution, as a solution of saccharide transferring reaction acceptor, of D-glucose, D-xylose, L-xylose, D-galactose, D-fructose, D-mannose, D-arabinose, D-fucose, L-sorbose, L-rhamnose, methyl-α-glucopyranoside (methyl-α-glucose), methyl-β-glucopyranoside ([…]), N-acetyl-glucosamine, sorbitol, α,α-trehalose, isomaltose, isomaltotriose, cellobiose, gentibiose, maltitol, lactose, sucrose, α-cyclodextrin, β-cyclodextrin, or γ-cyclodextrin, was prepared. To each solution with a saccharide concentration was added “PINE-DEX #100”, a partial starch hydrolysate, as a saccharide donor, to give a concentration of 4%, and admixed with one unit/g saccharide donor, d.s.b., of either of purified specimens of α-isomaltosylglucosaccharide-forming enzyme from Bacillus globisporus C9 strain obtained by the method in Experiment 2-1, Bacillus globisporus C11 strain obtained by the method in Experiment 4-1. The resulting mixture solutions were incubated at 30° C. and pH 6.0 except that the enzyme from Arthrobacter globiformis A19 strain was incubated at pH 8.4 for 24 hours. The reaction mixtures of the post-enzymatic reactions were analyzed on gas chromatography (abbreviated as “GLC” hereinafter) for monosaccharides and disaccharides as acceptors, and on HPLC for trisaccharides as acceptors to confirm whether these saccharides could be used as their saccharide transferring reaction acceptors. In the case of performing GLC, the following apparatuses and conditions are used: GLC apparatus, “GC-16A” commercialized by Shimadzu Corporation, Tokyo, Japan; column, a stainless-steel column, 3 mm in diameter and 2 m in length, packed with 2% “SILICONE OV-17/CHROMOSOLV W”, commercialized by GL Sciences Inc., Tokyo, Japan; carrier gas, nitrogen gas at a flow rate of 40 ml/min under temperature conditions of increasing from 160° C. to 320° C. at an increasing temperature rate of 7.5° C./min; and detection, a hydrogen flame ionization detector.
(§2) In the case of HPLC analysis, the apparatuses and conditions used were: HPLC apparatus, “CCPD” commercialized by Tosoh Corporation, Tokyo, Japan; column, “ODS-AQ-303” commercialized by YMC Co., Ltd., Tokyo, Japan; eluent, water at a flow rate of 0.5 ml/min; and detection, a differential refractometer.

[2] = tested on: α-isomaltosylglucosaccharide-forming enzyme from Bacillus globisporus C9 strain; assay: Specificity of saccharide transferring reaction acceptor, enzyme of Strain C9; format: biochemical; design: key: −: no saccharide-transferred product was detected through transferring reaction to acceptor; ±: a saccharide-transferred product was detected in an amount of less than one percent through transfer reaction to acceptor; +: a saccharide-transferred product was detected in an amount of at least one percent but less than ten percent through transferring reaction to acceptor; ++: a saccharide-transferred product was detected in an amount of at least ten percent through transferring reaction to acceptor; conditions: 1.6% acceptor, 4% PINE-DEX #100 as donor, one unit/g donor, 30° C., pH 6.0, 24 hours; GLC or HPLC
Description: as §1, §2

O=C[C@@H](O)[C@H](O)[C@H](O)CO [D-Arabinose, D-arabinose]
Product of saccharide transferring reaction, Enzyme of Strain C11 [1]: ± (a saccharide-transferred product was detected in an amount of less than one percent through transfer reaction to acceptor)
Product of saccharide transferring reaction, Enzyme of Strain C9 [2]: ± (a saccharide-transferred product was detected in an amount of less than one percent through transfer reaction to acceptor)

O=C(CO)[C@@H](O)[C@H](O)[C@H](O)CO [D-Fructose, D-fructose]
Product of saccharide transferring reaction, Enzyme of Strain C11 [1]: + (a saccharide-transferred product was detected in an amount of at least one percent but less than ten percent through transferring reaction to acceptor)
Product of saccharide transferring reaction, Enzyme of Strain C9 [2]: + (a saccharide-transferred product was detected in an amount of at least one percent but less than ten percent through transferring reaction to acceptor)

C[C@@H](O)[C@H](O)[C@H](O)[C@@H](O)C=O [D-Fucose, D-fucose]
Product of saccharide transferring reaction, Enzyme of Strain C11 [1]: + (a saccharide-transferred product was detected in an amount of at least one percent but less than ten percent through transferring reaction to acceptor)
Product of saccharide transferring reaction, Enzyme of Strain C9 [2]: + (a saccharide-transferred product was detected in an amount of at least one percent but less than ten percent through transferring reaction to acceptor)

O=C[C@H](O)[C@@H](O)[C@@H](O)[C@H](O)CO [D-Galactose, D-galactose]
Product of saccharide transferring reaction, Enzyme of Strain C11 [1]: + (a saccharide-transferred product was detected in an amount of at least one percent but less than ten percent through transferring reaction to acceptor)
Product of saccharide transferring reaction, Enzyme of Strain C9 [2]: + (a saccharide-transferred product was detected in an amount of at least one percent but less than ten percent through transferring reaction to acceptor)

O=C[C@H](O)[C@@H](O)[C@H](O)[C@H](O)CO [D-Glucose, D-glucose]
Product of saccharide transferring reaction, Enzyme of Strain C11 [1]: + (a saccharide-transferred product was detected in an amount of at least one percent but less than ten percent through transferring reaction to acceptor)
Product of saccharide transferring reaction, Enzyme of Strain C9 [2]: + (a saccharide-transferred product was detected in an amount of at least one percent but less than ten percent through transferring reaction to acceptor)

O=C[C@@H](O)[C@@H](O)[C@H](O)[C@H](O)CO [D-Mannose, D-mannose]
Product of saccharide transferring reaction, Enzyme of Strain C11 [1]: −
Product of saccharide transferring reaction, Enzyme of Strain C9 [2]: −

O=C[C@H](O)[C@@H](O)[C@H](O)CO [D-Xylose, D-xylose]
Product of saccharide transferring reaction, Enzyme of Strain C11 [1]: ++ (a saccharide-transferred product was detected in an amount of at least ten percent through transferring reaction to acceptor)
Product of saccharide transferring reaction, Enzyme of Strain C9 [2]: ++ (a saccharide-transferred product was detected in an amount of at least ten percent through transferring reaction to acceptor)

C[C@H](O)[C@H](O)[C@@H](O)[C@@H](O)C=O [L-Rhamnose, L-rhamnose]
Product of saccharide transferring reaction, Enzyme of Strain C11 [1]: −
Product of saccharide transferring reaction, Enzyme of Strain C9 [2]: −

O=C(CO)[C@@H](O)[C@H](O)[C@@H](O)CO [L-Sorbose, L-sorbose]
Product of saccharide transferring reaction, Enzyme of Strain C11 [1]: + (a saccharide-transferred product was detected in an amount of at least one percent but less than ten percent through transferring reaction to acceptor)
Product of saccharide transferring reaction, Enzyme of Strain C9 [2]: + (a saccharide-transferred product was detected in an amount of at least one percent but less than ten percent through transferring reaction to acceptor)

O=C[C@@H](O)[C@H](O)[C@@H](O)CO [L-Xylose, L-xylose]
Product of saccharide transferring reaction, Enzyme of Strain C11 [1]: ++ (a saccharide-transferred product was detected in an amount of at least ten percent through transferring reaction to acceptor)
Product of saccharide transferring reaction, Enzyme of Strain C9 [2]: ++ (a saccharide-transferred product was detected in an amount of at least ten percent through transferring reaction to acceptor)

CO[C@H]1O[C@H](CO)[C@@H](O)[C@H](O)[C@H]1O [Methyl-α-glucopyranoside, methyl-α-glucopyranoside]
Product of saccharide transferring reaction, Enzyme of Strain C11 [1]: ++ (a saccharide-transferred product was detected in an amount of at least ten percent through transferring reaction to acceptor)
Product of saccharide transferring reaction, Enzyme of Strain C9 [2]: ++ (a saccharide-transferred product was detected in an amount of at least ten percent through transferring reaction to acceptor)

CO[C@@H]1O[C@H](CO)[C@@H](O)[C@H](O)[C@H]1O [Methyl-β-glucopyranoside, methyl-β-glucopyranoside]
Product of saccharide transferring reaction, Enzyme of Strain C11 [1]: ++ (a saccharide-transferred product was detected in an amount of at least ten percent through transferring reaction to acceptor)
Product of saccharide transferring reaction, Enzyme of Strain C9 [2]: ++ (a saccharide-transferred product was detected in an amount of at least ten percent through transferring reaction to acceptor)

CC(=O)N[C@H]1C(O)O[C@H](CO)[C@@H](O)[C@@H]1O (stereo partly shown) [N-Acetyl-glucosamine, N-acetyl-glucosamine]
Product of saccharide transferring reaction, Enzyme of Strain C11 [1]: + (a saccharide-transferred product was detected in an amount of at least one percent but less than ten percent through transferring reaction to acceptor)
Product of saccharide transferring reaction, Enzyme of Strain C9 [2]: + (a saccharide-transferred product was detected in an amount of at least one percent but less than ten percent through transferring reaction to acceptor)

OC[C@@H](O)[C@@H](O)[C@H](O)[C@@H](O)CO [Sorbitol, sorbitol]
Product of saccharide transferring reaction, Enzyme of Strain C11 [1]: −
Product of saccharide transferring reaction, Enzyme of Strain C9 [2]: −

OC[C@H]1O[C@@H]2O[C@H]3[C@H](O)[C@@H](O)[C@@H](O[C@H]4[C@H](O)[C@@H](O)[C@@H](O[C@H]5[C@H](O)[C@@H](O)[C@@H](O[C@H]6[C@H](O)[C@@H](O)[C@@H](O[C@H]7[C@H](O)[C@@H](O)[C@@H](O[C@H]1[C@H](O)[C@H]2O)O[C@@H]7CO)O[C@@H]6CO)O[C@@H]5CO)O[C@@H]4CO)O[C@@H]3CO [α-Cyclodextrin, α-cyclodextrin]
Product of saccharide transferring reaction, Enzyme of Strain C11 [1]: −
Product of saccharide transferring reaction, Enzyme of Strain C9 [2]: −

OC[C@H]1O[C@@H]2O[C@H]3[C@H](O)[C@@H](O)[C@@H](O[C@H]4[C@H](O)[C@@H](O)[C@@H](O[C@H]5[C@H](O)[C@@H](O)[C@@H](O[C@H]6[C@H](O)[C@@H](O)[C@@H](O[C@H]7[C@H](O)[C@@H](O)[C@@H](O[C@H]8[C@H](O)[C@@H](O)[C@@H](O[C@H]1[C@H](O)[C@H]2O)O[C@@H]8CO)O[C@@H]7CO)O[C@@H]6CO)O[C@@H]5CO)O[C@@H]4CO)O[C@@H]3CO [β-Cyclodextrin, β-cyclodextrin]
Product of saccharide transferring reaction, Enzyme of Strain C11 [1]: −
Product of saccharide transferring reaction, Enzyme of Strain C9 [2]: −

OC[C@H]1O[C@@H]2O[C@H]3[C@H](O)[C@@H](O)[C@@H](O[C@H]4[C@H](O)[C@@H](O)[C@@H](O[C@H]5[C@H](O)[C@@H](O)[C@@H](O[C@H]6[C@H](O)[C@@H](O)[C@@H](O[C@H]7[C@H](O)[C@@H](O)[C@@H](O[C@H]8[C@H](O)[C@@H](O)[C@@H](O[C@H]9[C@H](O)[C@@H](O)[C@@H](O[C@H]1[C@H](O)[C@H]2O)O[C@@H]9CO)O[C@@H]8CO)O[C@@H]7CO)O[C@@H]6CO)O[C@@H]5CO)O[C@@H]4CO)O[C@@H]3CO [γ-Cyclodextrin, γ-cyclodextrin]
Product of saccharide transferring reaction, Enzyme of Strain C11 [1]: −
Product of saccharide transferring reaction, Enzyme of Strain C9 [2]: −
